According to patent publication US20230416248A1, “COMPOUNDS AND USES THEREOF” (Foghorn Therapeutics Inc., priority 2020, published 2023):
Each block holds one molecule with its values, some of them ahead of it.

Columns and labels:
BRM = target: T1, BRM (Homo sapiens, UniProt P51531); assay: ATPase catalytic activity of BRM, ADP-Glo in vitro biochemical assay; settings: for IC50: ATPase catalytic activity, ADP-Glo, 30 nM BRM, 400 μM ATP; for Ratio*: ratio of BRG1 IC50 to BRM IC50
T1 construct: made in house; host or cells: High Five insect cells
T1 sequence (P51531 whole entry): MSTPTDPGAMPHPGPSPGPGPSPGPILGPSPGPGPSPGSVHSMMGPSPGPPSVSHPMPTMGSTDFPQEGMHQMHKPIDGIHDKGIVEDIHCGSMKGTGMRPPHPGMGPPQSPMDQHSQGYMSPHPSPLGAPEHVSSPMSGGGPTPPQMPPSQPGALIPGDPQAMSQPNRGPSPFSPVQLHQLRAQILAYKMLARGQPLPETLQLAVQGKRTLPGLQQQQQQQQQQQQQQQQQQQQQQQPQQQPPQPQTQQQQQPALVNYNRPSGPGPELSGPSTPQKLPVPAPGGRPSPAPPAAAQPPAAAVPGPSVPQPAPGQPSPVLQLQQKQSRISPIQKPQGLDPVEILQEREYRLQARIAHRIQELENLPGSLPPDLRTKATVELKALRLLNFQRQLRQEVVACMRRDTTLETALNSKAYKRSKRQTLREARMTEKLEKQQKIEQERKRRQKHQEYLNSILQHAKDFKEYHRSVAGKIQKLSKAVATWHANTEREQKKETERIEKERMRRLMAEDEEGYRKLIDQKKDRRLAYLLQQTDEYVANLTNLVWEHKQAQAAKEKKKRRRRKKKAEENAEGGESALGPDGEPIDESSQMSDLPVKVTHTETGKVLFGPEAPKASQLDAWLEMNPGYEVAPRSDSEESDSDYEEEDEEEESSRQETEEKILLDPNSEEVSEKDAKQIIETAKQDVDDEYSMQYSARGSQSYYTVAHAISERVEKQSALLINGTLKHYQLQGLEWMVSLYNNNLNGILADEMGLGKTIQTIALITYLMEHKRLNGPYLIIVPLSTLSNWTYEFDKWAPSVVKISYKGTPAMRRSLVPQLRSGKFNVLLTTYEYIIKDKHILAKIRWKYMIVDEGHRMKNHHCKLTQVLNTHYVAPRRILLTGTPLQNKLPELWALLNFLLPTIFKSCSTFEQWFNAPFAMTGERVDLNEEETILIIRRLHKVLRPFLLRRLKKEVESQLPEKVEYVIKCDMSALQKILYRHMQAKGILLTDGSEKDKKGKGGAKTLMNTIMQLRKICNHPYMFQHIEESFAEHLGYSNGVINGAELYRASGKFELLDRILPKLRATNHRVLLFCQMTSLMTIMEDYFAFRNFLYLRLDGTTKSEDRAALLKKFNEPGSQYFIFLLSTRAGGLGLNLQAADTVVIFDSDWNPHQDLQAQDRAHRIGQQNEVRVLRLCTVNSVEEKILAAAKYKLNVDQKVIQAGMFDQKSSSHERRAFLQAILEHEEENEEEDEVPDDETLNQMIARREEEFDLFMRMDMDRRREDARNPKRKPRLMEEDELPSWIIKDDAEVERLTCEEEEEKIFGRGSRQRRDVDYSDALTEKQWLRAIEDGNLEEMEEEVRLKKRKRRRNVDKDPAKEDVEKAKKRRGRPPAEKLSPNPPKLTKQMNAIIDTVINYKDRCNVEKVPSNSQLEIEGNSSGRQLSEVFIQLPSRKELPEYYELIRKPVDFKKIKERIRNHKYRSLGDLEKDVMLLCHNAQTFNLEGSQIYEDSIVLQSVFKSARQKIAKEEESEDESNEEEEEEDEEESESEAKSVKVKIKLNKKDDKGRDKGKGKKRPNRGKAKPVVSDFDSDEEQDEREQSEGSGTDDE
How it was run: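 ADP-Glo luminescence, after depletion of leftover ATP and conversion of ADP, reported the activity. The 1 h room-temperature reaction held 400 μM ATP, 20 nM salmon sperm DNA and 30 nM BRM in 20 mM Tris pH 8, 20 mM MgCl2, 50 mM NaCl, 0.1% Tween-20, 1 mM DTT.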

BRG-1 = target: T2, BRG-1 (Homo sapiens, UniProt P51532); assay: ATPase catalytic activity of BRG-1, ADP-Glo in vitro biochemical assay; settings: ATPase catalytic activity, ADP-Glo; 30 nM BRG-1, 400 μM ATP; read-out: BRG1 IC50
T2 construct: made in house; host or cells: High Five insect cells
T2 sequence (P51532 whole entry): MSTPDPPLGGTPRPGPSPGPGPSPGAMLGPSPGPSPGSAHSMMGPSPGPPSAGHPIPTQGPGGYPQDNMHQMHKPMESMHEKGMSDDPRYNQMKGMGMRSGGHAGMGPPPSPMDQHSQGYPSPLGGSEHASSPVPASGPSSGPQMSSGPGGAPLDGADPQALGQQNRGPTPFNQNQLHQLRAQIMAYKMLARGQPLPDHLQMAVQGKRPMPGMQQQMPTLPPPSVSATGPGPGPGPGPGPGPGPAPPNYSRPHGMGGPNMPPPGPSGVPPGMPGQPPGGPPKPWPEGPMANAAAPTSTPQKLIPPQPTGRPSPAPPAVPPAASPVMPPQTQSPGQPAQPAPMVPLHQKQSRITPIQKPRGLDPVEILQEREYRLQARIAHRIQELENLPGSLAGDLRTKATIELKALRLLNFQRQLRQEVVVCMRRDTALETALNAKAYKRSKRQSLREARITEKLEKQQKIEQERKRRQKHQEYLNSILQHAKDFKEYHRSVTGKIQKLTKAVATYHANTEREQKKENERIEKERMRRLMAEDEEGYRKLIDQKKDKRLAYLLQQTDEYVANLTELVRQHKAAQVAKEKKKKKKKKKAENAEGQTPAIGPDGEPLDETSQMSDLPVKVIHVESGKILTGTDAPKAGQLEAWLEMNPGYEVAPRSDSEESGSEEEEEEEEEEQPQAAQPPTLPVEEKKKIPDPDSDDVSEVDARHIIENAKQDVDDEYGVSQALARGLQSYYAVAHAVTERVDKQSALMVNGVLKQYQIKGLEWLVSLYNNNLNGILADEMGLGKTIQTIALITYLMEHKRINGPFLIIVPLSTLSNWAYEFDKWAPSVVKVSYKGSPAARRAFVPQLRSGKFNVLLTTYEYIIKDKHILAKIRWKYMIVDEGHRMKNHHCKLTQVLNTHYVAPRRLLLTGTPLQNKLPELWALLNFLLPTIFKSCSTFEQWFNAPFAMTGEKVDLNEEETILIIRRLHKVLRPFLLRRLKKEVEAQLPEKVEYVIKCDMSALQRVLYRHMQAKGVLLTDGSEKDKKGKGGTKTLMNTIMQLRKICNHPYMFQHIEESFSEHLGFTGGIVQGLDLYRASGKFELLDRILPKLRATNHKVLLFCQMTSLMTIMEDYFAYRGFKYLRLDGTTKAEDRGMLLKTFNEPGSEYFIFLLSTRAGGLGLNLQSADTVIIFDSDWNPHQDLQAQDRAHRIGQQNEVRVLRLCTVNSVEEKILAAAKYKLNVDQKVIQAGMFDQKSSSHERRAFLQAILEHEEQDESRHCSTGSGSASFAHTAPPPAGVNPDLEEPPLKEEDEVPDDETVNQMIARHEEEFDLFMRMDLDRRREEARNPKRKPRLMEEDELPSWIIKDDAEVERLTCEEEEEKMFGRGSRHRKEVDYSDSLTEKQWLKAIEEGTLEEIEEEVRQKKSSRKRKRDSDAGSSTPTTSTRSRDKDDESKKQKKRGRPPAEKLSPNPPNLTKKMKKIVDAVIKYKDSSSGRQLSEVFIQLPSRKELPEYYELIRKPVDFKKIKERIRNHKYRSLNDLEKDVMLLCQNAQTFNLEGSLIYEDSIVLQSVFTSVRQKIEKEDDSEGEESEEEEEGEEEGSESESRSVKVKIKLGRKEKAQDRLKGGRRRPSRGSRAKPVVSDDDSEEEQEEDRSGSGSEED
How it was run: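 Once the ATPase reaction finished, leftover ATP was depleted over 40 minutes at room temperature. Generated ADP was next turned back into ATP during a 60-minute room-temperature step. Luciferase-derived light was then measured.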

Structure (SMILES): CC1CCN(c2ccc3cnc(CNC(=O)c4ccc5c(c4)S(=O)(=O)CCOC5)cc3n2)c2ncccc21 (stereo not drawn) [Compound 504]
IC50 (BRM): 28.6 nM
Ratio* (BRM): 7.45
IC50 (BRG-1): 213 nM

Structure (SMILES): C[C@@H]1CN(c2cccc(-c3ccc4cnc(CNC(=O)c5cc(Cl)c6c(c5)S(=O)(=O)CC[C@H](C)O6)cc4n3)n2)C[C@H](C)O1 [Compound 506]
IC50 (BRM): 49.2 nM
Ratio* (BRM): 13.12
IC50 (BRG-1): 645 nM

Structure (SMILES): COC[C@H](NC(=O)c1ccc2c(c1)S(=O)(=O)CCOC2)c1cc2nc(-c3cccc(C4CC4)n3)ccc2cn1 [Compound 507]
IC50 (BRM): 387 nM
Ratio* (BRM): 6.28
IC50 (BRG-1): 2430 nM

Structure (SMILES): O=C(NCc1cc2nc(N3CCOc4cc(C(F)F)cnc43)ccc2cn1)c1ccc2c(c1)S(=O)(=O)CCOC2 [Compound 508]
IC50 (BRM): 13.1 nM
Ratio* (BRM): 10.53
IC50 (BRG-1): 137 nM

Structure (SMILES): C[C@@H]1CN(c2cccc(-c3ccc4cnc(CNC(=O)c5cnc6c(c5)S(=O)(=O)[C@@H](C)CCC6)cc4n3)n2)C[C@H](C)O1 [Compound 509]
IC50 (BRM): 6.4 nM
Ratio* (BRM): 4.21
IC50 (BRG-1): 26.9 nM

Structure (SMILES): COCCc1cnc2c(c1)CCCN2c1ccc2cnc(CNC(=O)c3ccc4c(c3)S(=O)(=O)CCOC4)cc2n1 [Compound 510]
IC50 (BRM): 13.9 nM
Ratio* (BRM): 10.20
IC50 (BRG-1): 142 nM

Structure (SMILES): CN1C(=O)CN(c2ccc3cnc(CNC(=O)c4ccc5c(c4)S(=O)(=O)CCOC5)cc3n2)c2ccccc21 [Compound 511]
IC50 (BRM): 329 nM
Ratio* (BRM): 2.54
IC50 (BRG-1): 835 nM

Structure (SMILES): CN1CCN(c2ccc3cnc(CNC(=O)c4ccc5c(c4)S(=O)(=O)CCOC5)cc3n2)c2ccccc21 [Compound 512]
IC50 (BRM): 28.7 nM
Ratio* (BRM): 7.58
IC50 (BRG-1): 217 nM

Structure (SMILES): O=C(NCc1cc2nc(N3CCCc4ccc(Cl)nc43)ccc2cn1)c1ccc2c(c1)S(=O)(=O)CCOC2 [Compound 513]
IC50 (BRM): 16.9 nM
Ratio* (BRM): 9.70
IC50 (BRG-1): 164 nM

Structure (SMILES): Cc1cnc2c(c1)CCCN2c1ccc2cnc(CNC(=O)c3ccc4c(c3)S(=O)(=O)CCCO4)cc2n1 [Compound 514]
IC50 (BRM): 58.9 nM
Ratio* (BRM): 7.89
IC50 (BRG-1): 465 nM

Structure (SMILES): C[C@@H]1CN(c2cccc(-c3ccc4cnc(CNC(=O)c5cnc6c(c5)S(=O)(=O)[C@H](C)CCC6)cc4n3)n2)C[C@H](C)O1 [Compound 515]
IC50 (BRM): 231 nM
Ratio* (BRM): 11.23
IC50 (BRG-1): 2600 nM

Structure (SMILES): C[C@@H]1CN(c2cccc(-c3ccc4cnc(CNC(=O)c5cc(F)c6c(c5)S(=O)(=O)CCO[C@@H]6C)cc4n3)n2)C[C@H](C)O1 [Compound 516]
IC50 (BRM): 12.2 nM
Ratio* (BRM): 6.98
IC50 (BRG-1): 85 nM

Structure (SMILES): COc1nc(-c2ccc3cnc(CNC(=O)c4ccc5c(c4)S(=O)(=O)[C@@H](C)COC5)cc3n2)ccc1C(F)F [Compound 519]
IC50 (BRM): 13.3 nM
Ratio* (BRM): 10.89
IC50 (BRG-1): 144 nM

Structure (SMILES): O=C(NCc1cc2nc(N3CCOc4cc(C(F)F)ccc43)ccc2cn1)c1ccc2c(c1)S(=O)(=O)CCOC2 [Compound 520]
IC50 (BRM): 21.4 nM
Ratio* (BRM): 12.29
IC50 (BRG-1): 263 nM

Structure (SMILES): O=C(NCc1cc2nc(N3CCCc4c(C(F)F)ccnc43)ccc2cn1)c1ccc2c(c1)S(=O)(=O)CCOC2 [Compound 521]
IC50 (BRM): 59.7 nM
Ratio* (BRM): 7.10
IC50 (BRG-1): 424 nM

Structure (SMILES): C[C@@H]1CN(c2cccc(-c3ccc4cnc(CNC(=O)c5cc(F)c6c(c5)S(=O)(=O)CCO[C@H]6C)cc4n3)n2)C[C@H](C)O1 [Compound 522]
IC50 (BRM): 13.8 nM
Ratio* (BRM): 4.48
IC50 (BRG-1): 62.1 nM

Structure (SMILES): CC1COCc2ccc(C(=O)NCc3cc4nc(N5CCOc6cccnc65)ccc4cn3)cc2S1(=O)=O (stereo not drawn) [Compound 523]
IC50 (BRM): 11.6 nM
Ratio* (BRM): 15.53
IC50 (BRG-1): 181 nM

Structure (SMILES): C[C@H]1CCOc2c(F)cc(C(=O)NCc3cc4nc(N5CCOc6cccnc65)ccc4cn3)cc2S1(=O)=O [Compound 524]
IC50 (BRM): 14.6 nM
Ratio* (BRM): 11.68
IC50 (BRG-1): 171 nM

Structure (SMILES): O=C(NCc1cc2nc(N3CCCc4ccc(C(F)(F)F)cc43)ccc2cn1)c1ccc2c(c1)S(=O)(=O)CCOC2 [Compound 525]
IC50 (BRM): 25.1 nM
Ratio* (BRM): 14.85
IC50 (BRG-1): 373 nM

Structure (SMILES): O=C(NCc1cc2nc(N3CCCc4c(F)ccnc43)ccc2cn1)c1ccc2c(c1)S(=O)(=O)CCOC2 [Compound 526]
IC50 (BRM): 22.1 nM
Ratio* (BRM): 11.34
IC50 (BRG-1): 250 nM

Other lines, results leading:

IC50 (BRM): 20.9 nM
Ratio* (BRM): 8.47
IC50 (BRG-1): 177 nM
Structure (SMILES): N#Cc1ccc2c(c1)CCCN2c1ccc2cnc(CNC(=O)c3ccc4c(c3)S(=O)(=O)CCOC4)cc2n1 [Compound 527]

IC50 (BRM): 173 nM
Ratio* (BRM): 3.88
IC50 (BRG-1): 671 nM
Structure (SMILES): CC1CCc2ccc(-c3ccc4cnc(CNC(=O)c5ccc6c(c5)S(=O)(=O)CCOC6)cc4n3)nc2O1 (stereo not drawn) [Compound 529]

IC50 (BRM): 19.5 nM
Ratio* (BRM): 11.19
IC50 (BRG-1): 218 nM
Structure (SMILES): COc1nc(-c2ccc3cnc(CNC(=O)c4cc(F)c5c(c4)S(=O)(=O)[C@@H](C)COC5)cc3n2)ccc1C(F)F [Compound 530]

IC50 (BRM): 6.4 nM
Ratio* (BRM): 18.84
IC50 (BRG-1): 120 nM
Structure (SMILES): O=C(NCc1cc2nc(N3CCCc4ccc(C(F)F)cc43)ccc2cn1)c1ccc2c(c1)S(=O)(=O)CCOC2 [Compound 532]

IC50 (BRM): 7.3 nM
Ratio* (BRM): 12.51
IC50 (BRG-1): 91.4 nM
Structure (SMILES): O=C(NCc1cc2nc(N3CCCc4ccc(Cl)cc43)ccc2cn1)c1ccc2c(c1)S(=O)(=O)CCOC2 [Compound 533]

IC50 (BRM): 6.1 nM
Ratio* (BRM): 12.41
IC50 (BRG-1): 76.3 nM
Structure (SMILES): CO[C@H]1C[C@H]1N(C)c1cccc(-c2ccc3cnc(CNC(=O)c4ccc5c(c4)S(=O)(=O)CCOC5)cc3n2)n1 [Compound 534]

IC50 (BRM): 10.4 nM
Ratio* (BRM): 56.64
IC50 (BRG-1): 590 nM
Structure (SMILES): O=C(NCc1cc2nc(N3CCCc4ccc(C5CC5)nc43)ccc2cn1)c1ccc2c(c1)S(=O)(=O)CCOC2 [Compound 536]

IC50 (BRM): 114 nM
Ratio* (BRM): 14.67
IC50 (BRG-1): 1670 nM
Structure (SMILES): Cc1ccc2c(n1)N(c1ccc3cnc(CNC(=O)c4ccc5c(c4)S(=O)(=O)CCCO5)cc3n1)CCC2 [Compound 538]

IC50 (BRM): 12.2 nM
Ratio* (BRM): 12.53
IC50 (BRG-1): 153 nM
Structure (SMILES): COc1ccc2c(c1)N(c1ccc3cnc(CNC(=O)c4ccc5c(c4)S(=O)(=O)CCOC5)cc3n1)CCC2 [Compound 539]

IC50 (BRM): 30.7 nM
Ratio* (BRM): 20.63
IC50 (BRG-1): 632 nM
Structure (SMILES): CC1CN(c2cccc(-c3ccc4cnc(CNC(=O)c5ccc6c(c5)S(=O)(=O)C(C)COC6C)cc4n3)n2)CC(C)O1 (stereo not drawn) [Compound 540]

IC50 (BRM): 16.8 nM
Ratio* (BRM): 13.60
IC50 (BRG-1): 229 nM
Structure (SMILES): COc1nc(C(C)(F)F)ccc1-c1ccc2cnc(CNC(=O)c3ccc4c(c3)S(=O)(=O)[C@@H](C)COC4)cc2n1 [Compound 542]

IC50 (BRM): 20.2 nM
Ratio* (BRM): 18.97
IC50 (BRG-1): 383 nM
Structure (SMILES): COc1nc(C(C)(F)F)ccc1-c1ccc2cnc(CNC(=O)c3cc(F)c4c(c3)S(=O)(=O)[C@@H](C)COC4)cc2n1 [Compound 543]

IC50 (BRM): 41.8 nM
Ratio* (BRM): 24.42
IC50 (BRG-1): 1020 nM
Structure (SMILES): Cc1cc(C(=O)NCc2cc3nc(-c4cccc(N5C[C@@H](C)O[C@@H](C)C5)n4)ccc3cn2)cc2c1O[C@@H](C)CCS2(=O)=O [Compound 544]

IC50 (BRM): 7.7 nM
Ratio* (BRM): 8.60
IC50 (BRG-1): 65.9 nM
Structure (SMILES): Cc1cnc2c(c1)OCCN2c1ccc2cnc(CNC(=O)c3ccc4c(c3)S(=O)(=O)C(C)COC4)cc2n1 (stereo not drawn) [Compound 545]

IC50 (BRM): 5.4 nM
Ratio* (BRM): 9.59
IC50 (BRG-1): 51.7 nM
Structure (SMILES): COc1ccc2c(c1)OCCN2c1ccc2cnc(CNC(=O)c3ccc4c(c3)S(=O)(=O)CCOC4)cc2n1 [Compound 548]
